pIC50: −log10 of the molar value. In brackets after ≈: the same amount, converted by molar mass. Several values for one entry are separate records, joined by “and”; a condition that tells them apart may be missing. Identical values can stand only once. Like-named read-outs stand apart in the source and are kept apart here.
Tests used:
[1] = target: T1, E. coli DnaE (DNA polymerase III α-subunit from Escherichia coli) (Escherichia coli, UniProt P10443); assay: In vitro DnaE single enzyme assay (E. coli); assay type: biochemical; settings: for IC50: read-out: E. coli DnaE IC50 (converted); for pIC50: E. coli DnaE IC50
T1 construct: EcDnaE (E. coli DnaE residues 1-1160); 6xHis (N); made in house; host or cells: E. coli BL21(DE3)
Protocol: (§1) Plasmids encoding EcDnaE (E. coli DnaE residues 1-1160) and SaDnaE (S. aureus DnaE residues 1-1065) with 6×His N-terminal tags, were overexpressed in BL21(DE3) and BL21-AI cells (Invitrogen), respectively. Cells were grown in LB media to an OD ˜0.45 pelleted and then resuspended in Minimal Media, as described in Pryor et al. (1997, Protein Expr Purif. 10:309-19), and inducer (0.4 mM IPTG or 0.2% arabinose) for 21 hours at 18° C. at 220 rpm. Cells were then harvested, frozen for 20 minutes at −80° C. and thawed. Pellets were resuspended in 1× Talon buffer (50 mM Sodium Phosphate, 300 mM Sodium Chloride, pH 7.4) +10% glycerol +Roche PI's (-EDTA). Cells were lysed with two passes through a French press, then centrifuged for 45 minutes at 40,000 rpm (70Ti, Beckman). Supernatant was bound to 5 mL TALON resin (CLONTECH) for 1 hour at room temperature on Nutator. TALON resin was washed with 10 mM imidizole, and DnaE was eluted with 250 mM imidizole. Eluate was concentrated and run on a size exclusion column (SEC200, GE Healthcare) in the following buffer; 25 mM HEPES, 30 mM NaCl,1 mM CaCl2, 5% glycerol, pH 7.9. Pool SEC fractions based on SDS-PAGE run, aliquot, freeze, and store at -80° C.
(§2) DnaE was diluted in 50 mM potassium phosphate pH 7.5, 5 mM BME, 10% glycerol and 200 mM NaCl prior to use.
(§3) The purpose of the DnaE single enzyme assay is to determine the ability of compounds to inhibit the DNA polymerase III α-subunit homolog from Staphylococcus aureus or the α-subunit from Escherichia coli without the other components of the replication machinery. The DnaE single enzyme assay was a modified version of the method, Standard Pol III Assay Using Activated DNA and Four dNTPs, described by Butler et al., 2008, Methods in Molecular Medicine: New Antibiotic Targets 142:25-36. Briefly, in 96-well plates, enzyme was added to a mixture containing 30 mM Tris-HCl pH 7.5, 20% glycerol, 4 mM DTT, 10 mM Mg acetate, 0.025 mM dATP, 0.025 mM dGTP, 0.025 mM dc:TP, 0.011 mM ^3H-dTTP 1 mCi/ml (Perkin-Elmer), and 0.298 mg/mL Dnase I (Sigma) treated “activated” Calf Thymus DNA (Worthington Biochemical). The assay was set up so that 5 μl of compound was distributed to the plates, 90 μl of reaction mix was added to the compound, and 5 μl of enzyme was added to start the reaction. Assays were initiated by the addition of 0.8 μg/ml E. coli or 0.05 μg/ml S. aureus DnaE, incubated for 30 min at 30° C., and terminated by the addition of a 20% trichloroacetic acid and 0.2% sodium pyrophosphate solution. Precipitated labeled DNA was collected on Glass-fiber Filtermat A using Micro96 Harvester, and the filters were washed, dried, and counted in a Microbeta Trilux (Perkin Elmer). Serial dilutions of compounds (in DMSO) were added to the plates before enzyme addition.

[2] = target: T2, S. aureus DnaE (DNA polymerase III α-subunit homolog from Staphylococcus aureus) (Staphylococcus aureus, UniProt Q5HF71); assay: biochemical; assay type: biochemical; settings: for pIC50: S. aureus DnaE IC50; for IC50: read-out: S. aureus DnaE IC50 (converted)
T2 construct: SaDnaE (S. aureus DnaE residues 1-1065); 6xHis (N); made in house; host or cells: E. coli BL21-AI
T2 sequence (Q5HF71 1-1065): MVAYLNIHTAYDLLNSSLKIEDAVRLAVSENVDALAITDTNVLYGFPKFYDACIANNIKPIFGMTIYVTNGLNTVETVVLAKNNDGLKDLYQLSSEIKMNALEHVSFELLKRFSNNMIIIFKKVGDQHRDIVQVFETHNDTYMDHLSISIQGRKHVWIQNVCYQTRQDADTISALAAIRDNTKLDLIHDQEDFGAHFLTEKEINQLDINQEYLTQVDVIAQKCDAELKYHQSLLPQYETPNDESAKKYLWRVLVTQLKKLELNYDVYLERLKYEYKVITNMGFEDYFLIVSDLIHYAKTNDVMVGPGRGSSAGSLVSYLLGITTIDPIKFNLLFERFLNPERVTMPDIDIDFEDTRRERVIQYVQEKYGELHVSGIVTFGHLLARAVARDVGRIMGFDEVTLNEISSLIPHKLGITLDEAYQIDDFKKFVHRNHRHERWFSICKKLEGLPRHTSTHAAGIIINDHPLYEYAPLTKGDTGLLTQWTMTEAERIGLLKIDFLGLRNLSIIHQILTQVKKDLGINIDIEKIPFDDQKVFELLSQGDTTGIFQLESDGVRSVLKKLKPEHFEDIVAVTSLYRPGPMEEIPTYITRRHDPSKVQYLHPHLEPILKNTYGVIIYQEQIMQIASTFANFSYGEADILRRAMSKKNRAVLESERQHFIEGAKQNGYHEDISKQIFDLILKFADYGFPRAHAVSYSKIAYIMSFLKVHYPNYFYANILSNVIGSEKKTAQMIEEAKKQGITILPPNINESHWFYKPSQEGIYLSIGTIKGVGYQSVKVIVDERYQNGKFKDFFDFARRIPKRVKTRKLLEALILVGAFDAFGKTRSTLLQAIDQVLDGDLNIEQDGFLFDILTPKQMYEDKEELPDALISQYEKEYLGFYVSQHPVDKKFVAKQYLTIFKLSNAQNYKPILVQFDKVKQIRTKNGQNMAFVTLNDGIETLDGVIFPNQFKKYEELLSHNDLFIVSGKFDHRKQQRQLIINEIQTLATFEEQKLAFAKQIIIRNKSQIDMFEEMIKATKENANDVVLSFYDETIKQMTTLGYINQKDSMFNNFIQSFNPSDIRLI
Protocol: as §1, §2, §3

[3] = test system: Escherichia coli MB5747 (LS 883, tolC); assay: microbe, parasite or virus in culture; assay type: cell-based; settings: * = some reduction of growth versus control at […]; for MIC: Escherichia coli, read-out: E. coli LS883 tolC (MIC), MHII broth
[4] = test system: Pseudomonas aeruginosa MB5890 (CB1101, efflux-deleted); assay: microbe, parasite or virus in culture; assay type: cell-based; settings: * = some reduction of growth versus control at […]; for MIC: Pseudomonas aeruginosa, read-out: P. aeruginosa MB5890 efflux-del (MIC), MHII broth
[5] = test system: Staphylococcus aureus MB6266 (MRSA COL); assay: Nargenicin antibacterial assay (MIC), S. aureus; assay type: cell-based; settings: Staphylococcus aureus, MRSA, read-out: S. aureus COL (MIC), MHII broth + 50% human serum; * = some reduction of growth versus control at […]
[6] = test system: Streptococcus pneumoniae MB6357 (CL 2883); assay: Nargenicin antibacterial assay (MIC), S. pneumoniae; assay type: cell-based; settings: Streptococcus pneumoniae
[7] = read-out: S. pneumoniae MB2883 (MIC), Isosensitest broth, * = some reduction of growth versus control at […]
[8] = read-out: S. pneumoniae MB2883 (MIC)

T1 sequence (P10443 whole entry, the tested form may be a part): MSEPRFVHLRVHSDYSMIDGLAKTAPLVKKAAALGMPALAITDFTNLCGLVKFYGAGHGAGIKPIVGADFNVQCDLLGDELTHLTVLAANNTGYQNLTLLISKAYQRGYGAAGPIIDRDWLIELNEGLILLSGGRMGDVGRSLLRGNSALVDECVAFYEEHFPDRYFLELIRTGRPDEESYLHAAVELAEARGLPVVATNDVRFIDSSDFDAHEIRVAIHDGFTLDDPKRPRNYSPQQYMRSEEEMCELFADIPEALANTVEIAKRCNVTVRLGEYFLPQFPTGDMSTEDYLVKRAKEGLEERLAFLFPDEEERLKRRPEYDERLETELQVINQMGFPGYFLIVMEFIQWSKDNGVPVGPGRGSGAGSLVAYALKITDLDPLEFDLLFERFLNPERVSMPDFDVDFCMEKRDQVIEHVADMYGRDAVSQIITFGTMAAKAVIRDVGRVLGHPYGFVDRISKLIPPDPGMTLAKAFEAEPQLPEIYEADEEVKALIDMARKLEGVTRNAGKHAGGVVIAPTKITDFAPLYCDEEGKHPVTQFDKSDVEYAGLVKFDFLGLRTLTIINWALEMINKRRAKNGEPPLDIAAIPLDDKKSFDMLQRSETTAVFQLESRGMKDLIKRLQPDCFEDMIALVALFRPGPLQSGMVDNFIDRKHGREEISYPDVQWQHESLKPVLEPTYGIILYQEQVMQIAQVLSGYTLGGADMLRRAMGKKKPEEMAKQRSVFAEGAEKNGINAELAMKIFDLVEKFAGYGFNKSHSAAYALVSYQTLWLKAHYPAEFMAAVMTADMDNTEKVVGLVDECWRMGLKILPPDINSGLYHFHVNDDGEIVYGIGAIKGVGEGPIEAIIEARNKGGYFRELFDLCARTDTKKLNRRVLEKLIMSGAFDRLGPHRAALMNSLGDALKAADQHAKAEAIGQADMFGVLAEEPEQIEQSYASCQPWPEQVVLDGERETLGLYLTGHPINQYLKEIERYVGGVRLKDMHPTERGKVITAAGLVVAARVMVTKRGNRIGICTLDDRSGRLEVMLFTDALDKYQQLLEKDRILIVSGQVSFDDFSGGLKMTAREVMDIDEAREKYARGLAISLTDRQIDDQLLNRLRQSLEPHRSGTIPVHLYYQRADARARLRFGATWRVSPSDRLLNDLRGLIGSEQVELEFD

SMILES	IC50 [1] [µM]	pIC50 [2]	MIC [3] [µg/mL]	MIC [4] [µg/mL]	MIC [5] [µg/mL]	MIC [6, 7] [µg/mL]	pIC50 [1]	E. coli LS883 tolC (MIC) ([3]; MHII broth) [µg/mL]	P. aeruginosa MB5890 efflux-del (MIC) ([4]; MHII broth) [µg/mL]	IC50 [2] [nM]	MIC [6, 8] [µg/mL]
CO[C@H]1C[C@H]2C=CC3C4[C@H](O)[C@@H](C)[C@@H](OC(=O)c5ccc[nH]5)[C@@H]3O[C@]42/C(C)=C/[C@@H](C)[C@@H]([C@@H](C)OC(=O)C(=O)OCCN2CCN(C)CC2)OC1=O.O=C(O)C(F)(F)F [Example 210]	4.95	> 8.14	1	32	1	> 128					
C=CC[C@@H]1C(C)[C@@H](O)[C@@H]2[C@H]3C=C[C@@H]4C[C@H](OC)C(=O)O[C@H]([C@@H](C)O)[C@H](C)/C=C(\C)[C@@]24O[C@H]31 (stereo partly drawn) [Example 179, (3R,4S,7S,8aS,10aR,11S,12R,14R,14aS,14bS,E)-12-allyl-14-hydroxy-4-((R)-1-hydroxyethyl)-7-methoxy-1,3,13-trimethyl-3,4,8,8a,10a,11,12,13,14,14a-decahydro-11,14b-epoxynaphtho[2,1-e]oxecin-6(7H)-one]	> 112	4.54	64 (≈ 143 µM)	> 64	> 64	64 (≈ 143 µM)					
CC[C@H]1OC(=O)[C@@H](OC)C[C@H]2C=C[C@H]3[C@H]4O[C@]2(/C(C)=C/[C@H]1C)[C@@H]3[C@H](O)[C@@H](C)[C@H]4OC(=O)c1ccc[nH]1 [Example 159]		> 8.22	4 (≈ 8.01 µM)	32 (≈ 64.1 µM)	2		4.44 and 4.66 and 4.52 and 4.70	2	16		
CO[C@H]1C[C@H]2C=C[C@@H]3[C@H]4C(=O)C(C)C(C[N+](=O)[O-])[C@@H]3O[C@@]24/C(C)=C/[C@@H](C)[C@@H]([C@@H](C)OCSC)OC1=O (stereo partly drawn) [Example 175]		< 3.72	> 128	> 128	> 128	> 128					
COC1CC2C=CC3C4OC2(C(C)=CC(C)C(C(C)OC(=O)OCCN(CCO)C(CO)(CO)CO)OC1=O)C3C(O)C(C)C4OC(=O)c1ccc[nH]1 (stereo not drawn) [Example 31]		> 8.10	2 (≈ 2.66 µM)	32 (≈ 42.6 µM)	2	> 128					
CO[C@H]1C[C@H]2C=C[C@H]3[C@H]4O[C@]2(/C(C)=C/[C@@H](C)[C@@H]([C@@H](C)O)OC1=O)[C@@H]3[C@H](O)[C@@H](C)[C@H]4OCc1ccsc1 [Example 184]			8 (≈ 15.4 µM)	64 (≈ 123 µM)			4.12			77.1	64 (≈ 123 µM)
CCN[C@H]1[C@H](C)[C@@H](O)[C@@H]2[C@H]3C=C[C@@H]4C[C@H](OC)C(=O)O[C@H]([C@@H](C)O)[C@H](C)/C=C(\C)[C@@]24O[C@H]31 [Example 147, (3R,4S,7S,8aS,10aR,11R,12S,13S,14R,14aS,14bS,E)-12-(ethylamino)-14-hydroxy-4-((R)-1-hydroxyethyl)-7-methoxy-1,3,13-trimethyl-3,4,8,8a,10a,11,12,13,14,14a-decahydro-11,14b-epoxynaphtho[2,1-e]oxecin-6(7H)-one]			> 128	> 128		> 128	< 3.65			667	
CO[C@H]1C[C@H]2C=C[C@H]3[C@H]4O[C@]2(/C(C)=C/[C@@H](C)[C@@H]([C@@H](C)O)OC1=O)[C@@H]3[C@H](O)[C@@H](C)[C@H]4O [Example 152]			16 (≈ 37.9 µM)	16 (≈ 37.9 µM)	> 128	> 128					
CO[C@H]1C[C@H]2C=C[C@H]3[C@H]4O[C@]2(/C(C)=C/[C@@H](C)[C@@H]([C@H](C)N2C(=O)c5ccccc5C2=O)OC1=O)[C@@H]3[C@H](O)[C@@H](C)[C@H]4OC(=O)c1ccc[nH]1 [Example 172]			16 (≈ 24.8 µM)	> 128		> 128	4.20			~7.76	
CC[C@H]1OC(=O)[C@@H](OC)C[C@H]2C=C[C@H]3[C@H]4O[C@]2(/C(C)=C/[C@H]1C)[C@@H]3[C@H](O)C(C)[C@H]4C[N+](=O)[O-] (stereo partly drawn) [Example 190, (3R,4R,7S,8aS,10aR,11R,12S,14R,14aS,14bS,E)-4-ethyl-14-hydroxy-7-methoxy-1,3,13-trimethyl-12-(nitromethyl)-3,4,8,8a,10a,11,12,13,14,14a-decahydro-11,14b-epoxynaphtho[2,1-e]oxecin-6(7H)-one]			64 (≈ 142 µM)	> 64			4.18			6670	> 64
CO[C@H]1CC2C=C[C@H]3[C@H]4O[C@]2(/C(C)=C/[C@@H](C)[C@@H](C(C)O)OC1=O)[C@@H]3[C@H](O)[C@@H](C)[C@H]4OC(=O)c1cc(-c2ccsc2)c[nH]1 (stereo partly drawn) [Example 165]		5.31	16 (≈ 26.8 µM)	> 128	> 128	8 (≈ 13.4 µM)					
CO[C@H]1CC2C=C[C@H]3[C@H]4O[C@]2(/C(C)=C/[C@@H](C)[C@@H](C(C)O)OC1=O)[C@@H]3[C@H](O)[C@@H](C)[C@H]4OC(=O)c1cc(-c2cccn2C(=O)OC(C)(C)C)c[nH]1 (stereo partly drawn) [Example 45]		5.66	> 128	> 128	> 128	4 (≈ 5.88 µM)					
